From article PMC3302783, “Position of the Third Na^+ Site in the Aspartate Transporter GltPh and the Human Glutamate Transporter, EAAT1” (PLoS ONE, 2012)

How the values were obtained:
wild type GltPh = molecular target: T1, wild type GltPh (Pyrococcus horikoshii, UniProt O59010); assay: ^3H-L-aspartate uptake in proteoliposomes, wild type GltPh; format: biochemical
T1 construct: histidine tag (cleaved yes); made in house
T1 sequence (O59010 1-425): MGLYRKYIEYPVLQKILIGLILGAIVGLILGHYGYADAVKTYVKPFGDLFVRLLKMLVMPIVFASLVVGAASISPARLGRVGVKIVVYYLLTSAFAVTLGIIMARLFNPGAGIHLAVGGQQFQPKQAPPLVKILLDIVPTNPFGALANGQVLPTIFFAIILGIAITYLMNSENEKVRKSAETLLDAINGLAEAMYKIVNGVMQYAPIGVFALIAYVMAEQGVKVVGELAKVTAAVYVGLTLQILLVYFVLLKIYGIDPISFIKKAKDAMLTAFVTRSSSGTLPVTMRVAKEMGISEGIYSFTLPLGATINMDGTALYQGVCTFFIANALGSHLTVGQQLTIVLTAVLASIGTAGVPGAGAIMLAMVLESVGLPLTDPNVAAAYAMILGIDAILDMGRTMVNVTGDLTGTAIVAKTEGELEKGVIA
Protocol: (§1) Pure protein was reconstituted into liposomes using a method modified from Gaillard et al., 1996 [37]. Escherichia coli polar lipids and 1-palmitoyl-2-oleoyl-sn-glycero-3-phosphocholine (Avanti Polar Lipids), at a ratio of 3∶1, were mixed, dried under nitrogen, and resuspended in internal buffer (100 mM KCl, 20 mM HEPES pH 7.5 or the appropriate internal buffer as indicated below). The lipid mixture was briefly sonicated using a cylindrical sonicator (Labatory Supplies Co.) and the lipid suspension was frozen in liquid nitrogen and thawed at 45°C several times. Liposomes were formed by extrusion through 400 nm polycarbonate membranes (Avanti Polar Lipids) and were treated with Triton X-100 at a 0.5∶1 (w/w) detergent to lipid ratio prior to the addition of protein at 0.25 µg protein/mg lipid. The protein/lipid mixture was left at room temperature for 30 minutes before detergent was removed using SM2 Biobeads (Biorad). The protein/lipid mixture was incubated, with gentle agitation, with three consecutive batches of the Biobeads (80 mg/ml). Proteoliposomes were concentrated by centrifugation at 150,000 g for 30 minutes in a Beckman Optima TLX centrifuge, resuspended at 100 mg lipid/mL and either used immediately or flash frozen in liquid nitrogen and stored at −80°C.
(§2) ^3H-L-aspartate transport by wild type GltPh and mutant GltPh transporters was assayed using a protocol modified from Gaillard et al., 1996 [37]. Proteoliposomes were loaded with internal buffer (100 mM KCl, 20 mM HEPES pH 7.5) by several freeze/thaw cycles followed by extrusion as described above. The uptake reaction was initiated by diluting the proteoliposomes (100 mg lipid/mL) 133 fold into reaction buffer pre-warmed to 30°C. The reaction buffer contained: 100 mM NaCl, 20 mM HEPES pH 7.5, 1 µM valinomycin and the indicated concentrations of ^3H-L-aspartate. […] The filters were washed once with 2 mL of ice cold quench buffer and assayed for radioactivity using a Trilux beta counter (Perkin Elmer). The Na^+ dependence of ^3H-L-aspartate transport was measured by varying extraliposomal Na^+ from 0.1 to 300 mM Na^+. […] Background levels of uptake were measured by diluting proteoliposomes into internal buffer (100 mM KCl, 20 mM HEPES pH 7.5) containing 1 µM valinomycin and the indicated concentrations of ^3H-L-aspartate.
(§3) Substrate responses were fitted by least squares as a function of substrate concentration to I/Imax = [S]/([S]+K 0.5), where I is the current, Imax is the maximal current, K 0.5 is the concentration of substrate that generates half-maximal response, and [S] is the substrate concentration. […] For ^3H-L-aspartate uptake by GltPh, initial rates were calculated from the linear portion of the curve and all data represent the mean ± s.e.m. of at least 3 experiments.

GltPh T92A [1] = molecular target: T2, GltPh T92A (Pyrococcus horikoshii, UniProt O59010, T92A); assay: ^3H-L-aspartate uptake in proteoliposomes, GltPh T92A; format: biochemical
T2 construct: histidine tag (cleaved yes); made in house
T2 sequence (O59010 whole entry T92A): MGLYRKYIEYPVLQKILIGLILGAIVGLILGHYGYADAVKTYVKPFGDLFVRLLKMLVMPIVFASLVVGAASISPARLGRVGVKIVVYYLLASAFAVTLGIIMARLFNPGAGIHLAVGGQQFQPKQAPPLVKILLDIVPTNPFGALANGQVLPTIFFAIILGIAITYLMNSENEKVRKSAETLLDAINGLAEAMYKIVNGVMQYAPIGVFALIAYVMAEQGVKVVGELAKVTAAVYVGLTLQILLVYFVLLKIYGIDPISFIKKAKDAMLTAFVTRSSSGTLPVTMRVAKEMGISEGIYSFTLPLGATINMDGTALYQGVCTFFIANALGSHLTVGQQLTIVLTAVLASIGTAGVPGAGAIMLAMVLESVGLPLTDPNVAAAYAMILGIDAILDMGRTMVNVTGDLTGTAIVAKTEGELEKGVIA
Protocol: as §1, §2, §3

GltPh S93A [2] = molecular target: T3, GltPh S93A (Pyrococcus horikoshii, UniProt O59010, S93A); assay: ^3H-L-aspartate uptake in proteoliposomes, GltPh S93A; format: biochemical
T3 construct: histidine tag (cleaved yes); made in house
T3 sequence (O59010 whole entry S93A): as the sequence (O59010 whole entry T92A) above, with A92T, S93A counted along it
Protocol: as §1, §2, §3

EAAT1 = molecular target: T4, EAAT1 (Homo sapiens, UniProt P43003); assay: Two-electrode voltage clamp of Xenopus laevis oocytes expressing wild type EAAT1; format: cell-based
T4 construct: expressed in transfected cells; host or cells: Xenopus laevis oocytes injected with cRNA
T4 sequence (P43003 whole entry): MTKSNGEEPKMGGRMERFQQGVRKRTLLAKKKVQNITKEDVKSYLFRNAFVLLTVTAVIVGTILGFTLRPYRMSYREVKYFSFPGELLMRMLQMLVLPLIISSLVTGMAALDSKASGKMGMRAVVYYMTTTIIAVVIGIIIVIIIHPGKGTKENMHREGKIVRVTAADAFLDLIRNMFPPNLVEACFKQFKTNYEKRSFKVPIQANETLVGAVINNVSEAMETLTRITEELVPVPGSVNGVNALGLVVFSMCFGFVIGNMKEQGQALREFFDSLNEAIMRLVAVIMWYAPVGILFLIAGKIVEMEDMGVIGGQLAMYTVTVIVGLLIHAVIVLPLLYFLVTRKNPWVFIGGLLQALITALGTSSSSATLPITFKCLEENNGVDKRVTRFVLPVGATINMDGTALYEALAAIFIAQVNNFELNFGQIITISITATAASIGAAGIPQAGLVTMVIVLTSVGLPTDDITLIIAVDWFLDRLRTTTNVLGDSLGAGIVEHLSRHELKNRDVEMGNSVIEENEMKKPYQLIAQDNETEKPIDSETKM
Excerpt: (§4) All chemicals were obtained from Sigma unless otherwise stated. Stage V oocytes were harvested from Xenopus laevis as described previously.
(§5) NMDG^+ was used as a Na^+ substitute to maintain ionic strength of the buffers.
(§6) Substrate responses were fitted by least squares as a function of substrate concentration to I/Imax = [S]/([S]+K 0.5), where I is the current, Imax is the maximal current, K 0.5 is the concentration of substrate that generates half-maximal response, and [S] is the substrate concentration. Na^+ concentration responses were fit to the Hill equation I/Imax = [S]^n/([S]^n+(K 0.5)^n) where n is the Hill coefficient and all other terms are as described above. For ^3H-L-aspartate uptake by GltPh, initial rates were calculated from the linear portion of the curve and all data represent the mean ± s.e.m. of at least 3 experiments.

EAAT1 T130A = molecular target: T5, EAAT1 T130A (Homo sapiens, UniProt P43003, T130A); assay: Two-electrode voltage clamp of Xenopus laevis oocytes expressing EAAT1 T130A; format: cell-based
T5 construct: expressed in transfected cells; host or cells: Xenopus laevis oocytes injected with cRNA
T5 sequence (P43003 whole entry T130A): as the sequence (P43003 whole entry) above, with T130A counted along it
Excerpt: as §4, §5, §6

EAAT1 T131A = molecular target: T6, EAAT1 T131A (Homo sapiens, UniProt P43003, T131A); assay: Two-electrode voltage clamp of Xenopus laevis oocytes expressing EAAT1 T131A; format: cell-based
T6 construct: expressed in transfected cells; host or cells: Xenopus laevis oocytes injected with cRNA
T6 sequence (P43003 whole entry T131A): as the sequence (P43003 whole entry) above, with T131A counted along it
Excerpt: as §4, §5, §6

GltPh T92A [3] = molecular target: T2, GltPh T92A; assay: Binding free energy of Na^+ ions by thermodynamic integration (MD), GltPh T92A; conditions: GltPh T92A versus GltPh; from TI calculations
Protocol: (§7) The simulation systems are prepared using the software VMD [28]. The crystal structure of the GltPh trimer is embedded in a 1-palmitoyl-2-oleoyl-phosphatidylethanolamine (POPE) phospholipid bilayer and solvated in a box of water molecules with physiological concentration of NaCl. The final system consists of the trimer, 239 lipid molecules, 15688 water molecules and 35 Na^+ and 35 Cl^− ions. GltPh has a net charge of +6e, so to keep the system neutral 6 Cl^− ions are added in the apo system (more Cl^− ions are added when the bound Na^+ ions are included to preserve neutrality). […]
(§8) The binding free energies of Na^+ ions are calculated using the expression, ΔGb = ΔGint+ΔGtr , where the first term gives the free energy difference for the interactions of the ion in the binding site and bulk (i.e. translocation energy) and the second term measures the free energy loss due to reduction in translational entropy upon binding. […] The interaction energy is calculated using both the free energy perturbation (FEP) and the thermodynamic integration (TI) methods, [35]. […] Otherwise the binding free energy of the ion is determined from the average of the forward and backward calculations. […]

GltPh S93A [4] = molecular target: T3, GltPh S93A; assay: Binding free energy of Na^+ ions by thermodynamic integration (MD), GltPh S93A; conditions: GltPh S93A versus GltPh; from TI calculations
Protocol: as §7, §8

GltPh = system: GltPh; parameters: method as in PMID 17230192, PMID 19380583; conditions: initial functional studies of GltPh; ref [9], [11]; cited from earlier work
GltPh N310A = molecular target: T7, GltPh N310A (Pyrococcus horikoshii, UniProt O59010, N310A); assay: ^3H-L-aspartate uptake in proteoliposomes, GltPh N310A; format: biochemical; conditions: 100 nM ^3H-L-aspartate, 100 mM NaCl
T7 construct: histidine tag (cleaved yes); made in house
T7 sequence (O59010 whole entry N310A): as the sequence (O59010 whole entry T92A) above, with A92T, N310A counted along it
Protocol: (§9) Pure protein was reconstituted into liposomes using a method modified from Gaillard et al., 1996 [37]. Escherichia coli polar lipids and 1-palmitoyl-2-oleoyl-sn-glycero-3-phosphocholine (Avanti Polar Lipids), at a ratio of 3∶1, were mixed, dried under nitrogen, and resuspended in internal buffer (100 mM KCl, 20 mM HEPES pH 7.5 or the appropriate internal buffer as indicated below). The lipid mixture was briefly sonicated using a cylindrical sonicator (Labatory Supplies Co.) and the lipid suspension was frozen in liquid nitrogen and thawed at 45°C several times. […]
(§10) ^3H-L-aspartate transport by wild type GltPh and mutant GltPh transporters was assayed using a protocol modified from Gaillard et al., 1996 [37]. […] The filters were washed once with 2 mL of ice cold quench buffer and assayed for radioactivity using a Trilux beta counter (Perkin Elmer). The Na^+ dependence of ^3H-L-aspartate transport was measured by varying extraliposomal Na^+ from 0.1 to 300 mM Na^+. […] Background levels of uptake were measured by diluting proteoliposomes into internal buffer (100 mM KCl, 20 mM HEPES pH 7.5) containing 1 µM valinomycin and the indicated concentrations of ^3H-L-aspartate. […]

GltPh D312A = molecular target: T8, GltPh D312A (Pyrococcus horikoshii, UniProt O59010, D312A); assay: ^3H-L-aspartate uptake in proteoliposomes, GltPh D312A; format: biochemical; conditions: 100 nM ^3H-L-aspartate, 100 mM NaCl
T8 construct: histidine tag (cleaved yes); made in house
T8 sequence (O59010 whole entry D312A): as the sequence (O59010 whole entry T92A) above, with A92T, D312A counted along it
Protocol: as §9, §10

[5] = 100 nM ^3H-L-aspartate, Na^+ 0.1 to 300 mM
[6] = 100 mM Na^+, saturating substrate concentrations
[7] = ^3H-L-aspartate concentration-dependent transport, 100 mM NaCl
[8] = 100 µM L-glutamate, oocytes clamped at −60 mV

With `[Na+]` [Na^+] the “Hill coefficient of Na^+ dependence of aspartate transport” value (wild type GltPh; 100 nM ^3H-L-aspartate) was 2.3±0.5, the “K 0.5 for Na^+ dependence of aspartate transport” value (wild type GltPh; [5]) was 3.9 ± 0.4 mM and the “Hill coefficient of Na^+ dependence of aspartate transport” value (GltPh T92A [1]; 100 nM ^3H-L-aspartate) was 2.1±0.2. The “K 0.5 for Na^+ dependence of aspartate transport” value (GltPh T92A [1]; [5]) was 19 ± 1 mM, the “Hill coefficient of Na^+ dependence of aspartate transport” value (GltPh S93A [2]; 500 nM ^3H-L-aspartate) was 1.9±0.2 and the “K 0.5 for Na^+ dependence of aspartate transport” value (GltPh S93A [2]; 500 nM ^3H-L-aspartate, Na^+ 0.1 to 300 mM) was 44 ± 2 mM. The “Hill coefficient of Na^+ dependence of L-glutamate transport” value (EAAT1; 300 µM L-glutamate) was 2.8±0.4, the “K 0.5 for Na^+ dependence of L-glutamate transport” value (EAAT1; 300 µM L-glutamate, Na^+ 1 to 150 mM) was 28 ± 4 mM and the “Na^+ dependence of L-glutamate transport: saturation at highest Na^+ concentration” value (EAAT1 T130A; 1 mM L-glutamate, 150 mM Na^+) was “not saturating”. For the same molecule, the “Na^+ dependence of L-glutamate transport: saturation at highest Na^+ concentration” value (EAAT1 T131A; 1 mM L-glutamate, 150 mM Na^+) was “not saturating”, the “reduction of the binding free energy of Na3 by the mutation” value (GltPh T92A [3]) was 7.5 kcal/mol and the “reduction of the binding free energy of Na3 by the mutation” value (GltPh S93A [4]) was 5.9 kcal/mol. For the same molecule, the “Hill coefficient (Na^+ ions co-transported with substrate)” value (GltPh) was greater than 2.
With `N[C@@H](CC(=O)O)C(=O)O` [aspartate] the “maximal velocity of ^3H-L-aspartate transport” value (“maximal velocity” below) (wild type GltPh; [6]) was 7.5±0.5 nmol/mg protein/min, the “K 0.5 for aspartate transport” value (wild type GltPh; [7]) was 100 ± 10 nM and the “maximal velocity” value (GltPh T92A [1]; [6]) was 42±1 nmol/mg protein/min. For the same molecule, the “K 0.5 for aspartate transport” value (GltPh T92A [1]; [7]) was 61 ± 10 nM, the “maximal velocity” value (GltPh S93A [2]; [6]) was 58±3 nmol/mg protein/min and the “K 0.5 for aspartate transport” value (GltPh S93A [2]; [7]) was 370 ± 60 nM. The “^3H-L-aspartate uptake versus background” value (GltPh N310A) was “did not exhibit ^3H-L-aspartate uptake over background levels” and the “^3H-L-aspartate uptake versus background” value (GltPh D312A) was “did not exhibit ^3H-L-aspartate uptake over background levels”.
In the case of `N[C@@H](CCC(=O)O)C(=O)O` [L-glutamate], the “current elicited by L-glutamate” value (EAAT1; [8]) is reported as 395±20 nA, the “K 0.5 for L-glutamate transport” value (EAAT1; oocytes clamped at −60 mV) is reported as 15 ± 1 µM and the “current elicited by L-glutamate” value (EAAT1 T130A; [8]) is reported as 21±2 nA. For the same molecule, the “K 0.5 for L-glutamate transport” value (EAAT1 T130A; oocytes clamped at −60 mV) was 87 ± 3 µM, the “current elicited by L-glutamate” value (EAAT1 T131A; [8]) was 25±2 nA and the “K 0.5 for L-glutamate transport” value (EAAT1 T131A; oocytes clamped at −60 mV) was 124 ± 11 µM.
